Values quoted from earlier work in patent US20110071026A1, “LOW VISCOSITY, AQUEOUS […] CONCENTRATES” (priority 2009, published 2011).

Details: at 25° C.; acid form

O=C(O)CNCP(=O)(O)O [glyphosate, N-(phosphonomethyl)glycine]
solubility in water: about 12 g/L
